Test system: aldose reductase
Experiment: in vivo aldose reductase inhibition in streptozotocin-diabetic rats (residual sorbitol in sciatic nerve)
Details: oral dose necessary to reduce residual sorbitol level in sciatic nerve of dosed diabetic rat to level similar to normal undosed rat; dosed daily 2-5 days
Protocol: Thus, rats are made diabetic (as evidenced by severe glucosuria being present) by dosing with streptozotocin. The animals are then dosed daily with the test compound for 2-5 days. The animals are then killed 2-4 hours after the final dose and the eye lenses and/or sciatic nerves are removed. After a standard work-up procedure the residual sorbitol levels in each tissue are determined by gas liquid chromatography after conversion to the poly-trimethylsilyl derivatives. Inhibition of aldose reductase in vivo is then assessed by comparing the residual sorbitol levels in tissues from the dosed diabetic group of rats with those of an undosed group of diabetic rats and an undosed, normal group of rats.
In the above in vivo test, an effective dose (ED) may be defined as the oral dose necessary to reduce the residual sorbitol level in the sciatic nerve of a dosed rat to a level similar to that in sciatic nerve in a normal, undosed-rat.

Structure (SMILES) | oral ED
O=C1CC2(C(=O)N1)C(=O)N(Cc1ccc(Br)cc1F)c1c(Cl)cccc12 (single isomer, unassigned) [1'-(4-bromo-2-fluorobenzyl)-7'-chloro-spiro[pyrrolidine-3,3'-indoline]-2,2'5-trione] | approximately 1.1 mg./kg.
O=C1CC2(C(=O)N1)C(=O)N(Cc1ccc(Br)cc1F)c1c(F)cccc12 (single isomer, unassigned) [l'-(4-bromo-2-fluorobenzyl)-7'-fluoro-spiro[pyrrolidine-3,3'-indolinel-2,2',5-trione] | approximately 5.6 mg./kg.
